Legend:
Experiment in all cases: relative viability (nuclei count vs DMSO), 5 days (fraction); higher = more cells survive
[1] = compound: C1=CC2=C(C=C(C(=C2N=C1)O)N=NC3=CC4=C(C=C3)C=C(C=C4)S(=O)(=O)O)S(=O)(=O)O + Cc1nc(Nc2ncc(C(=O)Nc3c(C)cccc3Cl)s2)cc(N2CCN(CCO)CC2)n1 [Dasatinib] (partner 0.075 µM)
Procedure, shortened: (§1)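 After 5 days of treatment, lung cancer cells in 1536-well plates were fixed and stained in a single step (final 0.05% Triton X-100, 1% formaldehyde, 1 ug/ml Hoechst) and their nuclei counted on 4× images. Treatment had been applied by pin tool the day after seeding as one drug alone or as a fixed anchor-drug dose with five library-drug doses (not always all listed) in √10 steps. Relative viability is the nuclei count of treated wells divided by that of vehicle wells, and values are medians of duplicate plates.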

[2] = compound: O=C(NC1CCNCC1)c1n[nH]cc1NC(=O)c1c(Cl)cccc1Cl [AT-7519] + CC(C)C[C@H](NC(=O)[C@H](Cc1ccccc1)NC(=O)c1cnccn1)B(O)O [Bortezomib] (partner 0.002 µM)
Procedure, shortened: as §1

[3] = compound: O=C(NC1CCNCC1)c1n[nH]cc1NC(=O)c1c(Cl)cccc1Cl [AT-7519] + Cc1cc(Nc2cc(N3CCN(C)CC3)nc(Sc3ccc(NC(=O)C4CC4)cc3)n2)n[nH]1 [Tozasertib] (partner 0.1 µM)
Procedure, shortened: as §1

[4] = compound: O=C(NC1CCNCC1)c1n[nH]cc1NC(=O)c1c(Cl)cccc1Cl [AT-7519] + Nc1nc2[nH]cc(CCc3ccc(C(=O)N[C@@H](CCC(=O)O)C(=O)O)cc3)c2c(=O)[nH]1 [Pemetrexed] (partner 0.2 µM)
Procedure, shortened: as §1

Cell Line | relative viability ([1]; first compound 0.08 µM) | relative viability ([1]; first compound 0.253 µM) | relative viability ([1]; first compound 0.8 µM) | relative viability ([1]; first compound 2.53 µM) | relative viability ([1]; first compound 8 µM) | relative viability ([2]; first compound 0.01 µM) | relative viability ([2]; first compound 0.03162 µM) | relative viability ([2]; first compound 0.3162 µM) | relative viability ([2]; first compound 1 µM) | relative viability ([3]; first compound 0.01 µM) | relative viability ([3]; first compound 0.03162 µM) | relative viability ([3]; first compound 0.3162 µM) | relative viability ([3]; first compound 1 µM) | relative viability ([4]; first compound 0.01 µM) | relative viability ([4]; first compound 0.03162 µM) | relative viability ([4]; first compound 0.3162 µM) | relative viability ([4]; first compound 1 µM)
201T | 0.627 | 0.56 | 0.584 | 0.619 | 0.677 | 1.08 | 1.03 | 1.1 | 1.09 | 1.01 | 1.01 | 0.946 | 0.977 | 0.343 | 0.311 | 0.288 | 0.331
A-427 | 0.68 | 0.634 | 0.64 | 0.775 | 0.751 | 1.02 | 0.961 | 1.04 | 0.792 | 0.26 | 0.211 | 0.207 | 0.14 | 1.06 | 0.965 | 1.07 | 1.01
ABC-1 | 0.568 | – | – | 0.713 | 0.421 | 0.291 | 0.337 | 0.259 | 0.231 | 0.199 | 0.155 | 0.189 | 0.195 | – | – | – | –
BEN | 0.25 | 0.31 | 0.296 | 0.347 | 0.322 | 0.958 | 0.766 | 0.935 | 0.82 | 0.391 | 0.459 | 0.501 | 0.597 | 0.713 | 0.766 | 0.823 | 0.706
CAL-12T | 0.325 | 0.361 | 0.383 | 0.518 | 0.434 | – | 0.929 | 0.593 | 0.336 | 0.298 | 0.33 | 0.213 | 0.122 | 1.23 | 1.11 | 0.584 | 0.147
COR-L23 | 0.523 | 0.477 | 0.442 | 0.582 | 0.576 | 0.994 | 0.863 | 0.82 | 0.2 | 0.177 | 0.189 | 0.148 | 0.144 | 0.182 | 0.184 | 0.211 | 0.173
COR-L 105 | 0.307 | 0.337 | 0.445 | 0.348 | 0.278 | 0.75 | 0.898 | 0.65 | 0.344 | 0.327 | 0.382 | 0.378 | 0.413 | 1.26 | 1.08 | 1.07 | 0.657
Calu-6 | – | – | – | – | – | 1.11 | 0.975 | 1 | 0.328 | – | – | – | – | – | – | – | –
ChaGo-K-1 | 0.648 | 0.595 | 0.599 | 0.481 | 0.335 | 1.03 | 1.37 | 0.763 | 0.96 | 0.224 | 0.23 | 0.215 | 0.204 | 0.27 | 0.267 | 0.276 | 0.254
EBC-1 | – | – | – | – | – | 0.615 | 0.551 | 0.443 | 0.23 | – | – | – | – | – | – | – | –
EKVX | 0.314 | 0.648 | 0.556 | 0.743 | 0.633 | 0.978 | 0.911 | 0.996 | 1.13 | 0.454 | 0.389 | 0.403 | 0.531 | 0.423 | 0.342 | 0.246 | 0.463

Reference: the supplement of paper PMC10307832
